Reference: patent US20100314316A1, “HALOGENATED AMIDES AS BIOCIDES FOR TREATING WATER SYSTEMS CONTAINING REDUCING AGENTS” (priority 2009, published 2010)

Assays:
Assay type in all cases: cell-based
[1] = tested on: bacteria isolated from paper mill white water; test: Biocidal efficacy of seven biocides in artificial white water; conditions: artificial white water pH 8.1, 37 C
Experimental: Sterile artificial White Water (111 mg of CaCl2, 60 mg of MgSO4, 168 mg of NaHCO3, 140 mg of K2HPO4, 480 mg of NH4Cl, 1.04 mg of FeCl3.6H2O, 1.48 mg of Na2EDTA, 3000 mg of Dextrose, 10 mg of Yeast Extract, in 1 L water, pH 8.1) is contaminated with field isolated bacteria at a concentration of approximately 10^7 CFU/mL. The aliquots of this contaminated water are then treated with eight dosage levels of DBMAL and six other commonly used biocides in paper mill white water application. The same aliquots of the contaminated water without biocide are used as controls. After incubating at 37° C. for 4 hours, the valid bacteria in the aliquots are enumerated using a serial dilution method and the bacterial log10 reduction is calculated by comparing the valid bacteria number of biocide treated water aliquots to that of controls. Table 4 compares the efficacy of the seven biocides, expressed by bacterial log10 reduction.

[2] = tested on: field isolated bacteria; test: Resistance of biocide to sulfite deactivation: biocide pretreated with sulfite in paper mill white water before efficacy testing; conditions: for Decrease of efficacy due to sulfite pretreatment (bacterial log10 reduction): 80 ppm sulfite, 4 hrs; for Bacterial log10 reduction after treatment of biocide for 4 hrs: white water about pH 7.5, 37 C
Experimental: 50 ppm to 80 ppm sulfite is representative of a sulfite level for pulp and paper applications. The same white water sample without sulfite is used as none sulfite comparison and the same whitewater samples containing no biocide and with or without sulfite are used as controls. The water samples are incubated at 37° C. for 5 min and then are inoculated with field isolated bacteria at a concentration of approximately 10^7 CFU/mL. The mixtures are then incubated at 37° C. for 4 hours. After that, the viable bacteria in the mixtures is enumerated using a serial dilution method.

[3] = tested on: bacteria in sulfite-containing white water; test: Biocidal efficacy in presence of sulfite in contaminated paper mill white water (1-96 hours); conditions: for Bacterial log10 reduction at time point after biocide addition: about 80 ppm sulfite; for Duration of effectiveness (>3 log10 killing) compared with DBNPA: sulfite-containing white water
Experimental: The same contaminated whitewater samples without biocide are used as controls. The mixtures are incubated at 37° C. with shaking (100 RPM) for 96 hrs. At 1 hr, 3 hrs, 24 hrs, 48 hrs, 72 hrs and 96 hrs time points after the biocide addition, the valid bacteria in the mixtures are enumerated using a serial dilution method and the bacterial log10 reduction is calculated by comparing the valid bacteria number of biocide treated water aliquots to that of controls. Starting from 24 hrs after the sampling, the mixtures are reinoculated with field isolated bacteria at about 10^5 CFU/mL and are supplied with additional sulfite to keep an 80 ppm sulfite concentration.

[4] = 80 ppm sulfite pretreated, 29.7 ppm biocide
[5] = 80 ppm sulfite pretreated, 44.5 ppm biocide
[6] = 80 ppm sulfite pretreated, 66.7 ppm biocide
[7] = 80 ppm sulfite pretreated, 100.0 ppm biocide
[8] = non-sulfite treated, 29.7 ppm biocide
[9] = non-sulfite treated, 44.5 ppm biocide
[10] = non-sulfite treated, 66.7 ppm biocide
[11] = non-sulfite treated, 100.0 ppm biocide
[12] = 25 ppm active, 1 hr, pH 7.6, 37 C
[13] = 25 ppm active, 3 hr, pH 7.6, 37 C
[14] = 25 ppm active, 24 hrs, pH 7.6, 37 C
[15] = 25 ppm active, 48 hrs, reinoculated from 24 hrs
[16] = 25 ppm active, 72 hrs, reinoculated from 24 hrs
[17] = 25 ppm active, 96 hrs, reinoculated from 24 hrs
[18] = 50 ppm active, 1 hr, pH 7.6, 37 C
[19] = 50 ppm active, 3 hr, pH 7.6, 37 C
[20] = 50 ppm active, 24 hrs, pH 7.6, 37 C
[21] = 50 ppm active, 48 hrs, reinoculated from 24 hrs
[22] = 50 ppm active, 72 hrs, reinoculated from 24 hrs
[23] = 50 ppm active, 96 hrs, reinoculated from 24 hrs

CC1(C)C(=O)N(Cl)C(=O)N1Br [BCDMH, 1-Bromo-3-chloro-5,5-dimethylhydantoin]
Minimum dosage (ppm, active) required for at least 3 log10 reduction in numbers of bacteria in 4 hours ([1]; active ppm measured by available bromine & chlorine (chlorine/bromine)): 71.74 (chlorine/bromine) ppm

NC(=O)C(Br)(Br)C(N)=O [DBMAL, 2,2-Dibromomalonamide]
Decrease of efficacy due to sulfite pretreatment (bacterial log10 reduction) ([2]; 29.7 ppm biocide): 0.7 log10
Decrease of efficacy due to sulfite pretreatment (bacterial log10 reduction) ([2]; 44.5 ppm biocide): 3.3 log10
Decrease of efficacy due to sulfite pretreatment (bacterial log10 reduction) ([2]; 66.7 ppm biocide): 2.7 log10
Bacterial log10 reduction after treatment of biocide for 4 hrs [2, 4]: 1.0 log10
Bacterial log10 reduction after treatment of biocide for 4 hrs [2, 5]: 1.0 log10
Bacterial log10 reduction after treatment of biocide for 4 hrs [2, 6]: 2.3 log10
Bacterial log10 reduction after treatment of biocide for 4 hrs [2, 7]: 2.3 log10
Decrease of efficacy due to sulfite pretreatment (bacterial log10 reduction) ([2]; 100.0 ppm biocide): 2.4 log10
Bacterial log10 reduction after treatment of biocide for 4 hrs [2, 8]: 1.7 log10
Bacterial log10 reduction after treatment of biocide for 4 hrs [2, 9]: 4.3 log10
Bacterial log10 reduction after treatment of biocide for 4 hrs [2, 10]: 5.0 log10
Bacterial log10 reduction after treatment of biocide for 4 hrs [2, 11]: 4.7 log10
Decrease in efficacy when premixed with 80 ppm sulfite, compared with DBNPA ([2]; premixed with 80 ppm sulfite): much smaller
Bacterial log10 reduction at time point after biocide addition [3, 12]: 2.5 log10
Bacterial log10 reduction at time point after biocide addition [3, 13]: 3.2 log10
Bacterial log10 reduction at time point after biocide addition [3, 14]: 4.2 log10
Bacterial log10 reduction at time point after biocide addition [3, 15]: 3.7 log10
Bacterial log10 reduction at time point after biocide addition [3, 16]: 1.5 log10
Bacterial log10 reduction at time point after biocide addition [3, 17]: 1.2 log10
Bacterial log10 reduction at time point after biocide addition [3, 18]: >=4.0 log10
Bacterial log10 reduction at time point after biocide addition [3, 19]: 3.8 log10
Bacterial log10 reduction at time point after biocide addition [3, 20]: >=4.3 log10
Bacterial log10 reduction at time point after biocide addition [3, 21]: 4.3 log10
Bacterial log10 reduction at time point after biocide addition [3, 22]: 4.2 log10
Bacterial log10 reduction at time point after biocide addition [3, 23]: 3.8 log10
Duration of effectiveness (>3 log10 killing) compared with DBNPA ([3]; same active concentration of 25 ppm): one more day
Duration of effectiveness (>3 log10 killing) compared with DBNPA ([3]; same active concentration of 50 ppm): two more days
Minimum dosage (ppm, active) required for at least 3 log10 reduction in numbers of bacteria in 4 hours ([1]; approximately 10^7 CFU/mL): 81.92 ppm

N#CC(Br)(Br)C(N)=O [DBNPA, 2,2-Dibromo-3-nitrilopropionamide]
Decrease of efficacy due to sulfite pretreatment (bacterial log10 reduction) ([2]; 29.7 ppm biocide): >=3.4 log10
Decrease of efficacy due to sulfite pretreatment (bacterial log10 reduction) ([2]; 44.5 ppm biocide): >=4.4 log10
Decrease of efficacy due to sulfite pretreatment (bacterial log10 reduction) ([2]; 66.7 ppm biocide): >=4.4 log10
Bacterial log10 reduction after treatment of biocide for 4 hrs [2, 4]: 1.3 log10
Bacterial log10 reduction after treatment of biocide for 4 hrs [2, 5]: 1.3 log10
Bacterial log10 reduction after treatment of biocide for 4 hrs [2, 6]: 1.3 log10
Bacterial log10 reduction after treatment of biocide for 4 hrs [2, 7]: 2.3 log10
Decrease of efficacy due to sulfite pretreatment (bacterial log10 reduction) ([2]; 100.0 ppm biocide): >=3.4 log10
Bacterial log10 reduction after treatment of biocide for 4 hrs [2, 8]: 4.7 log10
Bacterial log10 reduction after treatment of biocide for 4 hrs [2, 9]: >=5.7 log10
Bacterial log10 reduction after treatment of biocide for 4 hrs [2, 10]: >=5.7 log10
Bacterial log10 reduction after treatment of biocide for 4 hrs [2, 11]: >=5.7 log10
Bacterial log10 reduction at time point after biocide addition [3, 12]: >=4.0 log10
Bacterial log10 reduction at time point after biocide addition [3, 13]: >=4.0 log10
Bacterial log10 reduction at time point after biocide addition [3, 14]: 3.3 log10
Bacterial log10 reduction at time point after biocide addition [3, 15]: 1.5 log10
Bacterial log10 reduction at time point after biocide addition [3, 16]: 0.3 log10
Bacterial log10 reduction at time point after biocide addition [3, 17]: 0 log10
Bacterial log10 reduction at time point after biocide addition [3, 18]: >=4.0 log10
Bacterial log10 reduction at time point after biocide addition [3, 19]: >=4.0 log10
Bacterial log10 reduction at time point after biocide addition [3, 20]: >=4.3 log10
Bacterial log10 reduction at time point after biocide addition [3, 21]: 4.5 log10
Bacterial log10 reduction at time point after biocide addition [3, 22]: 1.0 log10
Bacterial log10 reduction at time point after biocide addition [3, 23]: 0.7 log10
Minimum dosage (ppm, active) required for at least 3 log10 reduction in numbers of bacteria in 4 hours ([1]; approximately 10^7 CFU/mL): 128.00 ppm

O=CCCCC=O [Glutaraldehyde]
Minimum dosage (ppm, active) required for at least 3 log10 reduction in numbers of bacteria in 4 hours ([1]; approximately 10^7 CFU/mL): 163.84 ppm

NCl [monochloramine]
Minimum dosage (ppm, active) required for at least 3 log10 reduction in numbers of bacteria in 4 hours ([1]; active expressed as chlorine): 8.00 (chlorine) ppm
